Reference: ChEMBL document CHEMBL3407497, “Discovery of small molecule inhibitors to Krüppel-like factor 10 (KLF10): implications for modulation of T regulatory cell differentiation” (J Med Chem, 2015)
Active and inactive are the calls of the source. The rule behind the calls is not given here.

Assays:
HEK293 = experiment: Inhibition of GLI (unknown origin) expressed in HEK293 cells assessed as reduction in GLI-mediated transcription at 30 uM; assay type: cell-based; details: Homo sapiens
T-cell [1] = experiment: Inhibition of Foxp3 gene expression in mouse T regulatory cells at 50 uM measured during TGFbeta1-induced conversion of CD4(+) and CD25(-) cells to CD4(+) and CD25(+) cells incubated for 3 days by real-time quantitative PCR method; assay type: functional; details: 72 h
[2] = molecular target: Krueppel-like factor 1 (Homo sapiens) (UniProt Q13351); experiment: Inhibition of KLF1 (unknown origin) binding to DNA at 40 uM incubated for 4 hrs followed by biotin-labeled probes addition and incubated for another 1 hr by electromobility gel shift assay
Sequence of Krueppel-like factor 1 (Homo sapiens) (Q13351 whole entry): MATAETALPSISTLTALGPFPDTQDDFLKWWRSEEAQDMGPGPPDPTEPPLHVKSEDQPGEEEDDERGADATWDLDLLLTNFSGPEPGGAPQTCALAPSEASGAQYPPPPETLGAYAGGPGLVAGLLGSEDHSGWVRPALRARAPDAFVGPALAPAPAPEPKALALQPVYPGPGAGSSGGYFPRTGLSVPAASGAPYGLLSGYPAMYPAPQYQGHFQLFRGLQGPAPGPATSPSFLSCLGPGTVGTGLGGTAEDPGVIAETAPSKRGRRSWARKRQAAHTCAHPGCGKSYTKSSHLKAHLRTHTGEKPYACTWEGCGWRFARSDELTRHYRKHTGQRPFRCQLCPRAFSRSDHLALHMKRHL

T-cell [3] = experiment: Inhibition of mouse T regulatory cell differentiation assessed as inhibition of TGFbeta1-induced conversion of CD4(+) and CD25(-) cells to CD4(+) and CD25(+) cells incubated for 3 days by flow cytometry; assay type: functional
[4] = molecular target: T1, Krueppel-like factor 10 (Homo sapiens) (UniProt Q13118); experiment: Inhibition of KLF10 (unknown origin) binding to DNA at 40 uM incubated for 4 hrs followed by biotin-labeled probes addition and incubated for another 1 hr by electromobility gel shift assay
T1 sequence (whole entry): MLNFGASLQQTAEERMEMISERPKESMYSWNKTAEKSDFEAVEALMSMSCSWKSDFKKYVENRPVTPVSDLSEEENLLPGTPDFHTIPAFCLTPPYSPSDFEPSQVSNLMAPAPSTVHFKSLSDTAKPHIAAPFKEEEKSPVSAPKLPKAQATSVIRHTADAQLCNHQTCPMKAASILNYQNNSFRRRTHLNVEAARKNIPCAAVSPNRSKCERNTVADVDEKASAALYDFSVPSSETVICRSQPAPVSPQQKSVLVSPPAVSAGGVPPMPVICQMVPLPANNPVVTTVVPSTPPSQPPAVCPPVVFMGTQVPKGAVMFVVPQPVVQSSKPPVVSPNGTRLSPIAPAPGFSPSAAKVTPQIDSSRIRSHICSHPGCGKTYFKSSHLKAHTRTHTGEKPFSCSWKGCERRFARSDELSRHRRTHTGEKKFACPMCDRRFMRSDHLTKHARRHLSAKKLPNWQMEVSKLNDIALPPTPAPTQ

[5] = molecular target: Krueppel-like factor 1 (Homo sapiens) (UniProt Q13351); experiment: Inhibition of KLF1 (unknown origin) binding to DNA at 8 uM incubated for 4 hrs followed by biotin-labeled probes addition and incubated for another 1 hr by electromobility gel shift assay
[6] = molecular target: T1, Krueppel-like factor 10 (Homo sapiens); experiment: Inhibition of KLF10 (unknown origin) binding to DNA at 8 uM incubated for 4 hrs followed by biotin-labeled probes addition and incubated for another 1 hr by electromobility gel shift assay
Krueppel-like factor 10 = molecular target: T2, Krueppel-like factor 10 (Homo sapiens, UniProt Q13118); experiment: Inhibition of human KLF10 expressed in human HeLa cells assessed as reduction in transcriptional activity after 24 hrs by CACCC-responsive promoter driven TK-luciferase reporter gene assay; assay type: cell-based
T2 sequence (Q13118 whole entry): T1 sequence (whole entry)

[7] = Inhibition of zinc finger protein C7 (unknown origin) assessed as reduction in transcriptional activity by luciferase reporter gene assay relative to untreated control; design: species or system Homo sapiens

| inhibition [2] | inhibition [4] | inhibition [5] | inhibition [6] | SMILES | inhibition (HEK293) | inhibition at 50 µM (T-cell [1]) | inhibition (INH) (T-cell [3]) | further results |
| --- | --- | --- | --- | --- | --- | --- | --- | --- |
|  |  |  |  | CN(C)c1ccccc1CN1CCCN(Cc2ccccc2N(C)C)C1c1ccncc1 | Active |  |  |  |
| inactive | 45% | inactive | 12% | COc1ccc(C(=O)COC(=O)c2cc(C)ccc2O)cc1 |  | 82.5% | 59.1% | IC50 (Krueppel-like factor 10): 40 µM |
|  |  |  |  | c1ccc2[nH]c(-c3ccnc4ccccc34)nc2c1 |  |  |  | EC50 [7]: 35 µM |
| inactive | 25% | inactive | 11% | Cc1ccc(OCC(=O)c2cc(C)c(O)cc2O)cc1 |  | 84.7% |  |  |
|  |  |  | 25% | Cc1sc2nc(SCC(=O)c3ccc(O)c(O)c3)[nH]c(=O)c2c1C |  | 90.8% | 29.2% |  |
|  |  |  |  | c1cc(-c2sc(-c3ccncc3)c(-c3ccncc3)c2-c2ccncc2)ccn1 | Active |  |  |  |
